# ChEMBL document CHEMBL3734713, “4-Thiazolidinone derivatives as potent antimicrobial agents: microwave-assisted synthesis, biological evaluation and docking studies” (2015)
# Columns and labels:
# Salmonella typhimurium = assay: Antibacterial activity against Salmonella typhimurium ATCC 13311 assessed as growth inhibition after 24 hrs at 37 degC by iodonitrotetrazolium chloride staining based microdilution broth assay; type: functional, Salmonella enterica subsp. enterica serovar Typhimurium; conditions: Salmonella enterica, ATCC 13311, 24 h
# [1] = target: Human immunodeficiency virus type 1 reverse transcriptase (Human immunodeficiency virus 1) (UniProt Q72547); assay: Inhibition of HIV1 reverse transcriptase assessed as residual enzyme activity by measuring reduction in [3H]dTTP incorporation into poly(rA)-oligo(dT) at 4 uM incubated for 15 mins by scintillation counting method relative to control
# Aspergillus ochraceus = assay: Antifungal activity against Aspergillus ochraceus ATCC 12066 assessed as growth inhibition after 72 hrs at 28 degC by serial dilution method; type: functional
# Listeria monocytogenes = assay: Antibacterial activity against Listeria monocytogenes NCTC 7973 assessed as growth inhibition after 24 hrs at 37 degC by iodonitrotetrazolium chloride staining based microdilution broth assay; type: functional; conditions: NCTC 7973, 24 h
# Trichoderma viride = assay: Antifungal activity against Trichoderma viride IAM 5061 assessed as growth inhibition after 72 hrs at 28 degC by serial dilution method; type: functional
# Staphylococcus aureus = assay: Antibacterial activity against Staphylococcus aureus ATCC 6538 assessed as growth inhibition after 24 hrs at 37 degC by iodonitrotetrazolium chloride staining based microdilution broth assay; type: functional; conditions: ATCC 6538, 24 h
# Micrococcus flavus = assay: Antibacterial activity against Micrococcus flavus ATCC 10240 assessed as growth inhibition after 24 hrs at 37 degC by iodonitrotetrazolium chloride staining based microdilution broth assay; type: functional; conditions: ATCC 10240, 24 h
# Pseudomonas aeruginosa = assay: Antibacterial activity against Pseudomonas aeruginosa ATCC 27853 assessed as growth inhibition after 24 hrs at 37 degC by iodonitrotetrazolium chloride staining based microdilution broth assay; type: functional; conditions: ATCC 27853, 24 h
# Penicillium ochrochloron = assay: Antifungal activity against Penicillium ochrochloron ATCC 9112 assessed as growth inhibition after 72 hrs at 28 degC by serial dilution method; type: functional
# Escherichia coli = assay: Antibacterial activity against Escherichia coli ATCC 35210 assessed as growth inhibition after 24 hrs at 37 degC by iodonitrotetrazolium chloride staining based microdilution broth assay; type: functional; conditions: ATCC 35210, 24 h
# Aspergillus fumigatus = assay: Antifungal activity against Aspergillus fumigatus ATCC 1022 assessed as growth inhibition after 72 hrs at 28 degC by serial dilution method; type: functional
# Bacillus cereus = assay: Antibacterial activity against clinical isolates of Bacillus cereus assessed as growth inhibition after 24 hrs at 37 degC by iodonitrotetrazolium chloride staining based microdilution broth assay; type: functional
# Aspergillus niger = assay: Antifungal activity against Aspergillus niger ATCC 6275 assessed as growth inhibition after 72 hrs at 28 degC by serial dilution method; type: functional
# Enterobacter cloacae = assay: Antibacterial activity against human isolate of Enterobacter cloacae assessed as growth inhibition after 24 hrs at 37 degC by iodonitrotetrazolium chloride staining based microdilution broth assay; type: functional
# Talaromyces funiculosus = assay: Antifungal activity against Penicillium funiculosum ATCC 36839 assessed as growth inhibition after 72 hrs at 28 degC by serial dilution method; type: functional
# Aspergillus versicolor = assay: Antifungal activity against Aspergillus versicolor ATCC 11730 assessed as growth inhibition after 72 hrs at 28 degC by serial dilution method; type: functional
# Candida albicans = assay: Antifungal activity against Candida albicans ATCC 10231 assessed as growth inhibition after 72 hrs at 28 degC by serial dilution method; type: functional
smiles,measurement,setting,value
O=C1CSC(c2ccc([N+](=O)[O-])cc2)N1c1nc(C23CC4CC(CC(C4)C2)C3)cs1 (stereo not drawn),MBC,Salmonella typhimurium,125 µM
same,MIC,Salmonella typhimurium,30.6 µM
same,Activity,[1],99.3%
same,MFC99.5,Aspergillus ochraceus,0.28 ×10⁻² umol/ml
same,MIC,"Aspergillus ochraceus; Aspergillus ochraceus, ATCC 12066, 72 h",1.4 µM
same,MBC,Listeria monocytogenes,125 µM
same,MIC,Listeria monocytogenes,61.2 µM
same,MFC99.5,Trichoderma viride,0.28 ×10⁻² umol/ml
same,MIC,"Trichoderma viride; Trichoderma viride, IAM 5061, 72 h",1.4 µM
same,MBC,Staphylococcus aureus,61.2 µM
same,MIC,Staphylococcus aureus,30.6 µM
same,MBC,Micrococcus flavus,125 µM
same,MIC,Micrococcus flavus,61.2 µM
same,MBC,Pseudomonas aeruginosa,125 µM
same,MIC,Pseudomonas aeruginosa,30.6 µM
same,MFC99.5,Penicillium ochrochloron,0.28 ×10⁻² umol/ml
same,MIC,"Penicillium ochrochloron; Penicillium ochrochloron, ATCC 9112, 72 h",1.4 µM
same,MBC,Escherichia coli,125 µM
same,MIC,Escherichia coli,85 µM
same,MFC99.5,Aspergillus fumigatus,4.52 ×10⁻² umol/ml
same,MIC,"Aspergillus fumigatus; Aspergillus fumigatus, ATCC 1022, 72 h",11.3 µM
same,MBC,Bacillus cereus,30.6 µM
same,MIC,Bacillus cereus,16.2 µM
same,MFC99.5,Aspergillus niger,0.56 ×10⁻² umol/ml
same,MIC,"Aspergillus niger; Aspergillus niger, ATCC 6275, 72 h",3.5 µM
same,MBC,Enterobacter cloacae,62.5 µM
same,MIC,Enterobacter cloacae,30.6 µM
same,MFC99.5,Talaromyces funiculosus,0.14 ×10⁻² umol/ml
same,MIC,"Talaromyces funiculosus; Talaromyces funiculosus, ATCC 36839, 72 h",0.7 µM
same,MFC99.5,Aspergillus versicolor,1.13 ×10⁻² umol/ml
same,MIC,"Aspergillus versicolor; Aspergillus versicolor, ATCC 11730, 72 h",5.6 µM
same,MFC99.5,Candida albicans,2.26 ×10⁻² umol/ml
same,MIC,"Candida albicans; Candida albicans, ATCC 10231, 72 h",11.3 µM
